Experimental data reported in patent publication US9951335B2, “Compositions and methods for treating otitis media and other conditions with inhibitors of CYLD” (Georgia State University Research Foundation, Inc., priority 2012, dated 2018).
Where two headings read alike, the source gives them in different places. Residues, ends and D or L forms follow the SMILES beside them. *: point of attachment. Cbz = O=C(OCc1ccccc1)*

Columns and labels:
lung fibrosis = experiment: S. pneumoniae-induced lung fibrosis in Cyld−/− mice (H&E, Masson's trichrome); assay type: in vivo, mouse
Experimental: Cyld−/− mice were generated by homologous recombination as follows. The targeting construct was designed to disrupt the exons 2 and 3 with an IRES-LacZ/MC1-Neo cassette. The targeting plasmid was linearized and transfected into embryonic stem cells of a 129/S. Homologously recombined embryonic stem cells were injected into blastocysts that were subsequently transferred to foster mothers, to generate chimeric progeny. Generated chimeric progeny were backcrossed to C57BL/6J, and germline transmission was confirmed by PCR with tail DNA. Homozygous knockout of Cyld gene was confirmed by mRNA detection by RT-PCR and CYLD protein detection by western blot analysis in MEF cells and lung tissues. For S. pneumoniae-induced severe infections in WT and Cyld−/− mice, anaesthetized mice were intratracheally (i.t.) inoculated with live S. pneumoniae (5×10^7 CFU per mouse). Surviving mice from severe pneumonia were then sacrificed 2 weeks post S. pneumoniae infection for histopathological analysis. For TGF-β inoculation, anesthetized WT and Cyld−/− mice were i.t. inoculated with TGF-β (25-100 ng per mouse) for 6 hours, and lung tissues were then subjected to total mRNA and protein extraction. […]

[1] = tested on: NTHi-induced inflammation; experiment: NTHi-induced inflammation in epithelial cells (NF-κB activation, IL-1β, IL-8, TNF-α; Q-PCR, ELISA); assay type: cell-based, human; details: for NTHi-induced inflammatory response / concentration at which NTHi-induced inflammatory response was suppressed: HMEEC cell; for NTHi-induced inflammatory response: roflumilast at 1 μM
Text: We next determined if PDE4 inhibition suppresses NTHi-induced inflammation. […] Despite showing that inhibiting PDE4 enhanced up-regulation of CYLD and suppressed NTHi-induced inflammation, it was still unclear whether inhibiting PDE4 suppressed inflammation by up-regulating CYLD or by inhibiting a positive regulator of inflammation (e.g., IKKβ).

PDE4B / PDE4D = details: known property, cited from earlier work
CYLD [2] = experiment: NTHi-induced up-regulation of CYLD in epithelial cells (Q-PCR, Western blot); assay type: cell-based, human; details: for NTHi-induced up-regulation of CYLD at both mRNA and protein levels: HMEEC, A549 and primary NHBE cells, conventional and air-liquid-interface culture
Text: (§1) Phosphodiesterases (PDEs) have been recognized as therapeutic targets. […] For this reason, we initially sought to determine if PDEs act as key negative regulator for CYLD.

CYLD [3] = experiment: CYLD up-regulation in the middle ear of mouse OM model (Q-PCR, IF staining); assay type: in vivo
Text: as §1
Ototopical administration works effectively when the eardrum is perforated either pathologically or surgically by tympanostomy tube insertion. Thus, we first determined if ototopical administration of rolipram up-regulates CYLD and suppresses inflammation in the middle ear of mice post NTHi inoculation.

[4] = tested on: NTHi-induced inflammation; experiment: NTHi-induced middle ear inflammation in mouse OM model (cytokines, otoscopy, histopathology); assay type: in vivo
NF-κB = NF-κB activation induced by overexpressing constitutively active IKKβ or wild-type p65; assay type: cell-based
Text: We next determined if PDE4 inhibitors may also suppress inflammation via directly inhibiting IKKβ, the key positive regulator of NF-κB-dependent inflammation.

Smad3 [5] = experiment: Smad3 protein expression in cells incubated with Akt or PI3K inhibitor (immunoblotting); assay type: cell-based, mouse; details: 20 μM; MEF cells from Cyld+/+ and Cyld−/− mice (FIG. 5d), cells (FIG. 5e)
Experimental: FIG. 5 illustrates that CYLD decreases Smad3 stability by inhibiting Akt. (a) MEF cells from Cyld+/+ and Cyld−/− mice were transfected with siCon or siAkt1/2 and analysed by immunoblotting with the indicated antibodies. (b) SBE-promoter activity was determined in siCYLD-transfected A549 cells with or without siAkt co-transfection and stimulated with TGF-β. (c) SBE-promoter activity was determined in MEFs from Cyld+/+ and Cyld−/− mice pretreated with Akt inhibitor and stimulated with TGF-β. (d) MEF cells from Cyld+/+ and Cyld−/− mice were incubated with Akt inhibitor (20 μM), and cell lysates were analysed by immunoblotting with the indicated antibodies. (e) Cells were incubated with Akt inhibitor (20 μM) or LY294002 (20 μM), and cell lysates were analysed by immunoblotting with the indicated antibodies. (f) Lysates from cells transfected with HA-CYLD and Flag-Akt were immunoprecipitated with anti-CYLD antibody (upper panel) or anti-Akt antibody (lower panel), and interacting proteins were analysed by immunoblotting. […]
Western blot, immunoprecipitation and ubiquitination experiments were performed as follows. […] Immunoprecipitates were then suspended in a sample buffer, separated on 8% SDS-PAGE, transferred to polyvinylidine difluoride membrane, and detected by immunoblot analysis, as described above. […]

TGF-β-signalling = experiment: TGF-β-induced SBE-promoter activity in mouse MEF cells; assay type: cell-based; details: Cyld−/− MEFs pretreated with inhibitor
Experimental: (§2) The expression plasmids Flag-WT-CYLD, HA-WT-CYLD, Flag-H/N-CYLD, HA-C/S-CYLD, Flag-WT-Smad3, C/A-TβRI, and the reporter plasmids SBE-Luc, PAI-1-Luc, and NF-κB-Luc were previously described. Flag-WT-Akt1, pRK5-HA-Ub WT, pRK5-HA-Ub K63, and pRK5-HA-Ub K48 were from Addgene, and K to R mutants of Akt were generated with WT-Akt1 using QuickChange XL Site-Directed Mutagenesis kit (Stratagene). All transient transfections were carried out using TransIT-LT1 reagent (Minis) or Lipofectamine (Invitrogen) according to manufacturers' instructions.

Smad3 [6] = experiment: Smad3 protein level in transfected cells by immunoblotting; assay type: cell-based, human
Experimental: Western blot, immunoprecipitation and ubiquitination experiments were performed as follows. Western blots were performed using whole-cell extracts, separated on 8 or 10% SDS-PAGE gels, and transferred to polyvinylidine di& uoride membranes. The membrane was blocked with a solution of PBS containing 0.1% Tween 20 (PBS-T) and 5% BSA. The membrane was then incubated in a 1:2,000 dilution of a primary antibody in 5% BSA-PBS-T. After three washes in PBS-T, the membrane was incubated with 1:5,000 dilution of the corresponding secondary antibody in 3% non-fact skim milk-PBS-T. Respective proteins were visualized by using enhanced chemiluminescence detection reagents, according to the manufacturer's instructions. To conduct immunoprecipitation analysis, cell lysates were incubated with 1 μg of primary antibodies overnight, at 4° C., followed by 2-h incubation with protein A/G-agarose beads (Invitrogen). Immunoprecipitates were then suspended in a sample buffer, separated on 8% SDS-PAGE, transferred to polyvinylidine difluoride membrane, and detected by immunoblot analysis, as described above. […]

PAI-1 = experiment: TGF-β-induced PAI-1 expression (promoter activity, mRNA) in human cells; assay type: cell-based; details: WT-CYLD-transfected cells pre-treated with MG-132; mRNA
Experimental: Total RNA was isolated using TRIzol reagent following the manufacturer's instructions. Synthesis of complementary DNA from total RNA was performed with MultiScribe reverse transcriptase. Real-time quantitative PCR was performed using an ABI 7500 Sequence Detection System (Applied Biosystems). Relative quantities of mRNAs were calculated using the comparative threshold cycle method and normalized using human and mouse glyceraldehyde-3-phosphate dehydrogenase as an endogenous control. The primer sequences for mouse COL1A2, COL3A1, CTGF and PAI-1, and human PAI-1, CHIP, and Smad3 are as follows. Mouse CTGF: 5′-[…]-3′ (SEQ ID NO:1) and 5′-[…]-3′ (SEQ ID NO:2); mouse COL1A2: 5′-[…]-3′ (SEQ ID NO:3) and 5′-[…]-3′ (SEQ ID NO:4); mouse COL3A1: 5′-[…]-3′ (SEQ ID NO:5) and 5′-[…]-3′ (SEQ ID NO:6); mouse PAI-1: 5′-[…]-3′ (SEQ ID NO:7) and 5′-[…]-3′ (SEQ ID NO:8); human PAI-1: 5′-[…]-3′ (SEQ ID NO:9) and 5′-[…]-3′ (SEQ ID NO:10); human CHIP: 5′-[…]-3′ (SEQ ID NO:11) and 5′-[…]-3′ (SEQ ID NO:12).
as §2

[7] = ototopical pre- and post-inoculation administration, mouse OM model

Q: Which “lung fibrosis in S. pneumoniae-inoculated Cyld−/− lungs” value (lung fibrosis; 10 mg per kg body weight intraperitoneal, 2-weeks post infection) does the source give for `NC(=O)c1ccc(-c2nc(-c3ccccn3)c(-c3ccc4c(c3)OCO4)[nH]2)cc1` [SB431542] here?
A: inhibited

Q: Which NTHi-induced inflammatory response [1] does the source give for `COc1ccc([C@]2(C#N)CC[C@@H](C(=O)O)CC2)cc1OC1CCCC1` [cilomilast] here?
A: no significant inhibitory effect

Q: What about the “PDE4 subfamily selectivity (PDE4B versus PDE4D)” value (shortened to “PDE4 subfamily selectivity”) (PDE4B / PDE4D) of the same molecule?
A: more PDE4D selective

Q: For `CCCCOc1cc(CC2CNC(=O)N2)ccc1OC` (centres unmarked) [Ro20-1724], which “NTHi-induced up-regulation of CYLD at both mRNA and protein levels” value (CYLD [2]) is on record?
A: markedly enhanced

Q: Which “NTHi-induced up-regulation of CYLD at both mRNA and protein levels” value (CYLD [2]) does the source give for `COc1ccc(C2CNC(=O)C2)cc1OC1CCCC1` (centres unmarked) [rolipram] here?
A: markedly enhanced

Q: And the “up-regulation of CYLD at the mRNA level and protein level in the middle ear mucosa” value (CYLD [3]; mouse model of OM, Q-PCR and IF staining)?
A: enhanced

Q: What about the “CYLD expression in the middle ear” value (CYLD [3]; [7]) of the same molecule?
A: up-regulated

Q: And the “NTHi-induced mRNA expression of these cytokines in CYLD-deficient cells” value ([1]; CYLD-deficient cells)?
A: failed to inhibit

Q: And the “concentration at which NTHi-induced inflammatory response was suppressed” value [1]?
A: 10 µM

Q: What about the “NTHi-induced NF-κB activation” value ([1]; HMEEC, A549, primary NHBE cells) of the same molecule?
A: potently inhibited

Q: And the “NTHi-induced up-regulation of IL-1β, IL-8 and TNF-α in CYLD-depleted cells” value ([1]; HMEEC, A549, primary NHBE cells, CYLD depleted with siRNA CYLD)?
A: no longer inhibited

Q: And the “NTHi-induced up-regulation of pro-inflammatory mediators IL-1β, IL-8 and TNF-α at the mRNA and protein levels” value ([1]; HMEEC, A549, primary NHBE cells, Q-PCR and ELISA)?
A: potently inhibited

Q: And the “NTHi-induced otoscopic pathological changes of OM (congestion and swelling of tympanic membranes, mucous effusion)” value ([4]; i.p. administration, NTHi-inoculated mice, otoscopic examination)?
A: inhibited

Q: What about the “middle ear mucosal thickening and PMN infiltration in the middle ear mucosa” value ([4]; i.p. administration, histopathologic analysis) of the same molecule?
A: inhibited

Q: And the “NTHi-induced up-regulation of IL-1β and MIP-2, middle ear mucosal thickening and PMN infiltration” value ([4]; i.p. administration, mouse OM model, CYLD-deficiency context)?
A: no longer inhibited

Q: What about the “NTHi-induced up-regulation of the proinflammatory mediators in the middle ear of mouse” value ([4]; mouse) of the same molecule?
A: inhibited

Q: And the middle ear inflammation [4, 7]?
A: suppressed

Q: What about the “activation of NF-κB induced by overexpressing constitutively active IKKβ or wild-type p65” value (NF-κB) of the same molecule?
A: did not significantly inhibit

Q: Which Smad3 protein expression (Smad3 [5]) does the source give for `CCCCCCCCCCCCCCCCCCOCC(COC(=O)OC1C(O)C(O)C(O)C(CO)C1O)OC` [Akt inhibitor, 1L6-Hydroxymethyl-chiro-inositol-2(R)-2-O-methyl-3-O-octadecyl-sn-glycerocarbonate] here?
A: markedly reduced

Q: What about the “enhanced TGF-β-induced SBE promoter activity” value (TGF-β-signalling) of the same molecule?
A: inhibited

Q: Which CYLD expression (CYLD [2]) does the source give for `O=C(Nc1c(Cl)cncc1Cl)c1ccc(OC(F)F)c(OCC2CC2)c1` [roflumilast] here?
A: enhanced

Q: What about the “concentration at which NTHi-induced inflammatory response was suppressed” value [1] of the same molecule?
A: 1 µM

Q: And the NTHi-induced inflammatory response [1]?
A: markedly suppressed

Q: What about the “PDE4 subfamily selectivity” value (PDE4B / PDE4D) of the same molecule?
A: more selective for PDE4B than for PDE4D

Q: And the “PDE4 subfamily selectivity” value (PDE4B / PDE4D; listed as Roflumilast)?
A: more specific inhibitor for PDE4B

Q: With `C[S+]([O-])c1ccc(-c2nc(-c3ccc(F)cc3)c(-c3ccncc3)[nH]2)cc1` (centres unmarked) [SB203580] as the molecule, how does the “lung fibrosis in Cyld−/− mice” value (lung fibrosis; S. pneumoniae infection, 20 mg kg−1 intraperitoneal 1-2 hours before inoculation) read?
A: did not affect

Q: For `Cn1cc(C2=C(c3ccc(Cl)cc3Cl)C(=O)NC2=O)c2ccccc21` [SB216763], which “WT-CYLD-induced Smad3 decrease” value (Smad3 [6]; A549 cells, 5 μM for 12 h) is on record?
A: reversed

Q: With `CC(C)C[C@@H](C=O)NC(=O)[C@H](CC(C)C)NC(=O)[C@H](CC(C)C)NC(=O)OCc1ccccc1` [MG132] (Cbz-Leu-Leu-Leu-aldehyde) as the molecule, how does the “WT-CYLD-induced decrease in Smad3 protein level” value (Smad3 [6]; WT-CYLD-transfected cells, 20 μM) read?
A: reversed

Q: What about the “WT-CYLD-induced decrease in TGF-β-induced PAI-1 expression” value (PAI-1) of the same molecule?
A: reversed
